# Measurements from PMC10455339, “Combining the Peptide RWQWRWQWR and an Ethanolic Extract of Bidens pilosa Enhances the Activity against Sensitive and Resistant Candida albicans and C. auris Strains” (Journal of Fungi, 2023).
# Where two headings read alike, the source gives them in different places. Ends that are not written are not given here.
# Legend:
# C. albicans SC5314 [1] = tested on: C. albicans SC5314
# Experimental: (§1) This was performed using the checkerboard test, with some adjustments. Briefly, peptide or extract with FLC, peptide with extract, and extract, peptide, and FLC (final concentrations: 0, 0.06, 0.12, 0.25, 0.50, 1, and 2 times the MIC) were mixed. […] The fractional inhibitory concentration index (FIC I) was calculated as follows: [A/MIC A] + [P/MIC P] = FIC I, where MIC A and MIC P are the MICs of the individual peptide, extract, and/or antifungal. A and P are the MICs of the same, but in combination.
# (§2) The combinations were classified as synergistic (FIC I ≤ 0.5), additive (FIC I > 0.5–1), indifferent (FIC I > 1 < 4), or antagonistic (FIC I > 4).
# C. auris 537 [2] = tested on: C. auris 537
# Experimental: as §1, §2
# C. auris 435 = tested on: C. auris 435
# Experimental: as §1, §2
# C. albicans 256 [3] = tested on: C. albicans 256
# Experimental: as §1, §2
# C. auris 537 [4] = conditions: previously published, cited from earlier work
# Experimental: (§3) Table 5 Synergy test. Combination of R-1-R with FLC against C. albicans and C. auris. | column: MICR-1-R; MICFLC; R-1-R; FLC; FIC Index; MICR-1-R/R-1-R; MICFLC/FLC || Initially, the antifungal activity of mixtures of R-1-R/FLC against the C. albicans and C. auris strains was evaluated (Table 5). […] The MIC value of FLC in C. albicans SC5314 was reduced by a factor of 2, while that in C. albicans 256 was reduced by a factor of 8.
# C. albicans 256 [5] = conditions: previously published, cited from earlier work
# Experimental: as §3
# [6] = tested on: primary culture of human foreskin fibroblasts; format: cell-based; conditions: 2 h
# Experimental: The toxicity of the ethanolic extract of B. pilosa, the palindromic peptide, and their combinations was evaluated in a primary culture of human foreskin fibroblasts by the MTT (tetrazolium salt, Sigma-Aldrich) assay, with modifications. Briefly, cells were seeded in 96-well plates at a density of 1 × 10^4 cells and 100 μL per well and allowed to adhere and proliferate for 24 h RPMI medium at 37 °C and 5% CO2.
# Following this, the complete medium was replaced with incomplete medium (without 10% fetal bovine serum) for an additional 24 h in order to achieve synchronization. The cells were then incubated at 37 °C and 5% CO2 for 2 h with 100 μL of B. pilosa extract (31.25–2000 µg/mL), peptide at the concentrations evaluated (3.12–200 μg/mL), and additive or synergistic combinations (C 1: 25/250 µg/mL, C 2: 50/62.5 µg/mL, C 3: 100/125 µg/mL, and C 4: 25/31.25 µg/mL). The culture medium was removed, and 100 μL of incomplete medium with 10% MTT was added and incubated at 37 °C and 5% CO2 for 4 h. […] Following a 30 min incubation at 37 °C, the absorbance at 575 nm was measured, using the BioTek ELx800 absorbance reader (Agilent, Santa Clara, USA). […] In addition, the half-maximal inhibitory concentration (IC50) was calculated by plotting viability versus log (concentration).
# C. albicans SC5314 [7] = assay: microbe, parasite or virus in culture; format: cell-based, Candida albicans; conditions: SC5314, 48 h
# Experimental: For the determination of the MICs, the guidelines of the Clinical Laboratory Standards Institute (CLSI BMD-M27-A4) were used with some modifications. Serial dilutions were made, for peptides from 6.25 to 200 µg/mL and for extracts from 31.2 to 2000 µg/mL, with RPMI 1640 medium in a 96-well microdilution plate (100 µL), and then 100 µL of the adjusted inoculum (0.5–2.5 × 10^3 cells/mL) was added and incubated at 37 °C, and visual and spectrophotometric reading (595 nm) was performed at 48 h. Controls: growth control in RPMI or DMSO, control with a known antifungal: FLC, C. albicans SC5314 (1 µg/mL), C. albicans 256 (64 µg/mL), C. auris 435 (8 µg/mL), and C. auris 537 (128 µg/mL), sterility controls correspond to RPMI medium and SS. The MIC was defined as the minimum concentration of peptide or extract that inhibited 50% of growth compared to the control. To determine the minimal fungicidal concentration (MFC), from the concentrations where no growth was observed, including the controls, a subculture was made on SDA and incubated for 24 h at 37 °C. The MFC was defined as the minimum concentration of peptide or extract that eliminated 100% of the growth compared to the control (n = 3).
# human red blood cells = assay: Hemolytic activity assay; format: cell-based; conditions: positive control, Tween-20 (20% v/v) in PBS
# Experimental: The hemolytic activity of the ethanolic extract of B. pilosa, palindromic peptide, and their combinations was analyzed on human red blood cells. Briefly, 5 mL of peripheral blood from a healthy individual was collected in an EDTA tube and centrifuged at 2500 rpm for 7 min. The erythrocyte-rich fraction was suspended in PBS and washed twice by centrifugation. Then, 100 µL of the B. pilosa extracts (15.62–2000 µg/mL), palindromic peptide (1.56–200 µg/mL), or additive or synergistic combinations of peptide and plant extract (combination 1: 25/250 µg/mL, combination 2: 50/62.5 µg/mL, combination 3: 100/125 µg/mL, and combination 4: 25/31.25 µg/mL) was mixed with 100 µL of erythrocytes (2% hematocrit) in round-bottom 96-well plates and incubated at 37 °C for 2 h. Subsequently, the reaction was stopped by centrifuging for 10 min at 2500 rpm. To measure hemoglobin levels, 100 µL of the supernatant containing the hemoglobin released from lysed erythrocytes was transferred to a 96-well plate with a flat bottom, and the absorbance was measured at 450 nm. PBS was used as a negative control, while Tween-20 (20% v/v) in PBS was used as a positive control (n = 3).
# [8] = B. pilosa extract combined with FLC
# [9] = B. pilosa extract combined with FLC, checkerboard, 37 °C, 48 h
# [10] = B. pilosa extract, R-1-R and FLC combined
# [11] = B. pilosa extract, R-1-R and FLC combined, checkerboard, 37 °C, 48 h
# [12] = R-1-R combined with FLC, checkerboard, 37 °C, 48 h
compound,measurement,setting,value
"OC(Cn1cncn1)(Cn1cncn1)c1ccc(F)cc1F [FLC, fluconazole]",MIC alone/MIC in combination (factor of potentiation),C. albicans SC5314 [1]; [8],2
same,"MIC in combination (E, FLC)",C. albicans SC5314 [1]; [9],0.125 µg/mL
same,MIC alone/MIC in combination (factor of potentiation),C. albicans SC5314 [1]; [10],8
same,"MIC in combination (E, R-1-R, FLC)",C. albicans SC5314 [1]; [11],0.06 µg/mL
same,MIC alone/MIC in combination (factor of potentiation),C. albicans SC5314 [1]; R-1-R combined with FLC,2
same,"MIC in combination (R-1-R, FLC)",C. albicans SC5314 [1]; [12],0.0625 µg/mL
same,MIC alone/MIC in combination (factor of potentiation),C. auris 537 [2]; [8],4
same,"MIC in combination (E, FLC)",C. auris 537 [2]; [9],32 µg/mL
same,MIC alone/MIC in combination (factor of potentiation),C. auris 537 [2]; [10],16
same,"MIC in combination (E, R-1-R, FLC)",C. auris 537 [2]; [11],8 µg/mL
same,MIC alone/MIC in combination (factor of potentiation),C. auris 435; [8],1
same,"MIC in combination (E, FLC)",C. auris 435; [9],8 µg/mL
same,MIC alone/MIC in combination (factor of potentiation),C. auris 435; [10],4
same,"MIC in combination (E, R-1-R, FLC)",C. auris 435; [11],1 µg/mL
same,MIC alone/MIC in combination (factor of potentiation),C. auris 435; R-1-R combined with FLC,4
same,"MIC in combination (R-1-R, FLC)",C. auris 435; [12],2 µg/mL
same,MIC alone/MIC in combination (factor of potentiation),C. albicans 256 [3]; [8],4
same,"MIC in combination (E, FLC)",C. albicans 256 [3]; [9],32 µg/mL
same,MIC alone/MIC in combination (factor of potentiation),C. albicans 256 [3]; [10],8
same,"MIC in combination (E, R-1-R, FLC)",C. albicans 256 [3]; [11],4 µg/mL
same,MIC alone/MIC in combination (factor of potentiation),C. auris 537 [4]; R-1-R combined with FLC,8
same,"MIC in combination (R-1-R, FLC)",C. auris 537 [4]; R-1-R combined with FLC,8 µg/mL
same,"MIC of the agent alone (MICR-1-R, MICFLC)",C. auris 537 [4]; checkerboard R-1-R + FLC,64 µg/mL
same,MIC alone/MIC in combination (factor of potentiation),C. albicans 256 [5]; R-1-R combined with FLC,8
same,"MIC in combination (R-1-R, FLC)",C. albicans 256 [5]; R-1-R combined with FLC,4 µg/mL
same,"MIC of the agent alone (MICR-1-R, MICFLC)",C. albicans 256 [5]; checkerboard R-1-R + FLC,32 µg/mL
RWQWRWQWR-NH2 [Peptide R-1-R],IC50,[6],175.9 µg/mL
same,MIC,C. albicans SC5314 [7],67 µM
Tween-20,Hemolysis (in words),human red blood cells,completely lysed the red blood cells
